In publication PMC6348444, “New Water-Soluble Copper(II) Complexes with Morpholine–Thiosemicarbazone Hybrids: Insights into the Anticancer and Antibacterial Mode of Action” (Journal of Medicinal Chemistry, 2018):

What was measured:
[1] = n-octanol/water distribution coefficient, shake-flask; format: physicochemical; conditions: n-octanol/buffered aqueous solution, pH 7.40, UV-vis
Procedure: The titrations were carried out under a nitrogen atmosphere.

[2] = tested on: A2780 cells; test: Cellular accumulation of Cu by ICP-MS; format: cell-based, human; conditions: 24 h exposure, 1 μM
From the text: The ability of anticancer drugs to penetrate biological membranes, tissues, and barriers underlies their biological, pharmacokinetic, and metabolic properties. These properties can be predicted by calculating physicochemical characteristics of drug candidates using molecular descriptors.[30] […] The results are shown in Table S7 in the Supporting Information. On the basis of the calculated physicochemical parameters, we determined if novel compounds belonged to the drug-like chemical space, which is commonly defined by the well-known Lipinski rule, or to the known drug space (KDS), which includes all small compounds in medical use.[31] […] Following the calculations, we determined the lipophilicity of all compounds experimentally (log D7.4, Tables 1 and 2). It is known that cancer cells accumulate hydrophilic compounds to a smaller extent relative to hydrophobic compounds, thereby affecting their activity. […] As expected, proligands were more lipophilic than the corresponding Cu(II) species, which are positively charged at physiological pH (Figure 3b). […] The lipophilicity of 2–5 increased in the following order 4 < 2 < 3 < 5, and correlated well with their cytotoxicity in cancer cells, with the exception of 3. Subsequently, we determined the total cellular accumulation of Cu in A2780 cells by ICP–MS upon 24 h exposure to 1–6 in comparison with CuCl2 (Table 2). […] The accumulation increased in the order 6 < 1 < 3 < 4 < 2 < 5.
Cellular accumulation of 1–6 was determined in A2780 cells. Cells were seeded into Cellstar 6-well plates (Greiner Bio-one) at a density of 60 × 10^4 cells/well (2 mL per well). After the cells were allowed to resume exponential growth for 24 h, they were exposed to 1–6 at 1 μM for 24 h at 37 °C. The cells were washed twice with 1 mL of PBS and lysed with RIPA lysis buffer for 5–10 min at 4 °C. The cell lysates were scraped from the wells and transferred to separate 1.5 mL microtubes. The supernatant was then collected after centrifugation (13 000 rpm, 4 °C for 15 min) and total protein content of each sample was quantified via Bradford’s assay. Cell lysates were transferred to 2 mL glass vials and then digested with ultrapure 65% HNO3 at 100 °C for 24 h. The resulting solution was diluted to 1 mL (2–4% v/v HNO3) with ultrapure Milli-Q water. Cu content of each sample was quantified by ICP–MS. In was used as an internal standard. Cu and In were measured at m/z 64 and m/z 115, respectively. Metal standards for calibration curve (0, 0.5, 1, 2, 5, 10, 20, and 40 ppb) were freshly prepared before each measurement. All readings were made in triplicates in He mode. For temperature-dependent cellular accumulation experiments, A2780 cells were seeded into 35 n 10 mm tissue culture plates at a density of 60 0 10^4 cells/plate. After the cells were allowed to resume exponential growth for 24 h, they were exposed to 2 at 3 μM for 10, 30, 60, and 120 min at 37 and 4 °C. The subsequent analysis was performed as described above. For energy-dependent experiments, A2780 cells were seeded into 35 5 10 mm tissue culture plates at a density of 1 0 10^6 cells/plate. After the cells were allowed to resume exponential growth for 24 h, they were preincubated with oligomycin (5 μM) for 1 or 4 h or with cycloheximide (100 μM) for 4 h and further co-incubated with 3 μM of 2 at 37 °C. To induce total starvation, after the cells were allowed to resume exponential growth for 24 h, RPMI media was replaced with HBSS, and cells were preincubated in HBSS for 1 h and further incubated with 3 μM of 2 for 1 h at 37 °C. The subsequent analysis was performed as described above.

[3] = tested on: Staphylococcus aureus CECT 86 (ATCC 12600); test: MIC microdilution, S. aureus; format: cell-based; conditions: planktonic cells; for S. aureus MIC50: growth inhibited at 50%; for S. aureus MIC100: lowest concentration completely inhibiting growth
Procedure: (§1) Wild-type P. aeruginosa PAO1 strain CECT 4122 (ATCC 15692) and S. aureus CECT 86 (ATCC 12600) were obtained from the Spanish Type Culture Collection (CECT). All strains were routinely cultivated in TSB medium (Sharlab, Spain) at 37 °C. MIC assays were determined by the microdilution method using TSB broth following the method described by the Clinical and Laboratory standards Institute.[94] In brief, compounds were diluted in a 96-well microtiter plate (tissue culture-treated polystyrene; […]

[4] = tested on: Pseudomonas aeruginosa PAO1 CECT 4122 (ATCC 15692); test: MIC microdilution, P. aeruginosa; format: cell-based; conditions: planktonic cells; for P. aeruginosa MIC50: growth inhibited at 50%; for P. aeruginosa MIC100: lowest concentration completely inhibiting growth
Procedure: as §1

[5] = tested on: A2780 cells; test: Annexin V/PI apoptosis assay; format: cell-based, human; conditions: 24 h
From the text: To elucidate if observed cytotoxicity of new compounds described in this study was a result of apoptosis induction, we conducted Annexin V/PI apoptosis assay. In brief, fluorochrome-labeled Annexin V reagent is used for detection of membrane phosphatidylserine (PS), which translocates to the cellular surface from the inner side of plasma membrane in the event of early apoptosis. Simultaneously, PI is used for detection of later stages of apoptosis or necrosis, which are characterized by loss of membrane integrity and accumulation of PI inside the cells. […] Results are illustrated in Figure 9. Upon incubation of A2780 cells with increasing concentrations of HL^2 and 2, the dose-dependent increase of apoptotic cells was observed.
A2780 cells were seeded into Cellstar 12-well plates (Greiner Bio-One) at a density of 20 × 10^4 cells/well (1 mL per well). The cells were allowed to resume exponential growth for 24 h and subsequently they were exposed to HL^2 and 2 at different concentrations for 24 h. After the supernatant solution was collected in 1.5 mL microtubes, the cells were washed with 100 μL of trypsin, which was combined with the supernatant. Subsequently, cells were trypsinized with 200 μL of trypsin for 5 min at 37 °C, 5% CO2, washed with 200 μL of PBS, and combined with the supernatant. The cells were centrifuged at 2.5 × 10^3 rpm for 5 min and the pellets were washed once with PBS and resuspended in 500 μL of Annexin V binding buffer and stained with Annexin V-FITC and PI reagents. The fluorescence was immediately analyzed by flow cytometry. The resulting dot blots were acquired from 10 000 events and quantified using Flowjo software (Flowjo LLC, Ashland, OR, USA).

| SMILES | log D7.4 [1] | cellular accumulation A2780 [2] [nmol Cu/mg protein] | S. aureus MIC50 [3] [µg/mL] | S. aureus MIC100 [3] [µg/mL] | P. aeruginosa MIC50 [4] [µg/mL] | P. aeruginosa MIC100 [4] [µg/mL] | apoptotic cells ([5]; A2780, 2IC50 concentration) [%] | apoptotic cells ([5]; A2780, 6IC50 concentration) [%] |
| --- | --- | --- | --- | --- | --- | --- | --- | --- |
| CN(C)C(=NN=Cc1ccc(CN2CCOCC2)cn1)[S][Cu][Cl] [complex 2, [Cu(L^2)Cl]] | +0.30 ± 0.01 | 3.9 ± 0.6 | 2 | 10 | 70 | 200 | 22.5 ± 5.3 | 24.4 ± 7.8 |
| [Cl][Cu][S]C(=NN=Cc1ccc(CN2CCOCC2)cn1)Nc1ccccc1 [complex 5, [Cu(L^5)Cl]] | +1.49 ± 0.06 | 4.1 ± 0.9 | 3 | 10 | 200 | 450 | – | – |
